The results in this text go back to ChEMBL document CHEMBL1136817, “1,3,4-Trisubstituted pyrrolidine CCR5 receptor antagonists: modifications of the arylpropylpiperidine side chains” (Bioorg Med Chem Lett, 2003).

Each structure is given as a SMILES string. Some results are limits rather than exact numbers.

The test system of series [1] is Human immunodeficiency virus 1. Briefly: In vitro antiviral activity against HIV-1 (BAL) in HeLa cells. Type of series: functional.
The target in series [2] is T1, C-C chemokine receptor type 5 (Homo sapiens, UniProt P51681). As to the kind of experiment: (§1) Ability to displace [125I]- labeled MIP-1alpha from CCR5 receptor expressed on CHO cell membrane. Type of series: cell membranes.
Target sequence in this assay (P51681 whole entry): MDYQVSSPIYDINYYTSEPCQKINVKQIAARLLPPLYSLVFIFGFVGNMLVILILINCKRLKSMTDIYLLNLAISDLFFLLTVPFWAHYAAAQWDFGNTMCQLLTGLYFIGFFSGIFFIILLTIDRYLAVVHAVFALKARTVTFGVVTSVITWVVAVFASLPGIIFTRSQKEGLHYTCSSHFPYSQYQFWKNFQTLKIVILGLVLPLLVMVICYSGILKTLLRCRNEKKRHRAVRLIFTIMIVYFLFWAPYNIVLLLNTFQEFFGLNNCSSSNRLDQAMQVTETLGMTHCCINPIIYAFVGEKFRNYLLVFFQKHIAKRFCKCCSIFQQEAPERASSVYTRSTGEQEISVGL
Series [3] can be described thus: Half life was evaluated in rhesus. It counts as ADME. The following applies: cercopithecidae, in vivo.
Series [4] is described as follows: Oral bioavailability in rat. It counts as ADME, organism-based. Particulars: in vivo.
Series [5] can be described thus: Plasma clearance was evaluated in rhesus. It counts as ADME, organism-based. The following applies: cercopithecidae, read-out: Clp.
Series [6] in a line: Volume of distribution was evaluated in rhesus. Type of series: ADME, organism-based. Particulars: cercopithecidae, in vivo; read-out: Vdss.
Series [7] can be described thus: Plasma clearance was evaluated in rat. Type of series: ADME, organism-based. Particulars: read-out: Clp.
Series [8] in a line: Half life was evaluated in rat. Type of series: ADME, organism-based. Particulars: in vivo.
Series [9] in a line: Volume of distribution was evaluated in rat. Particulars: in vivo, read-out: Vdss. Type of series: ADME, organism-based.
The nature of series [10]: Oral bioavailability in Rhesus monkey. Particulars: in vivo. Type of series: ADME, organism-based, Macaca mulatta.
Series [11] can be described thus: Inhibitory concentration measured by Peripheral blood mononuclear cells (BAL) viral assay. It counts as functional. Particulars: Homo sapiens.
A short description of series [12]: Oral bioavailability. The following applies: rat, in vivo. Type of series: ADME, organism-based.
Series [13] is described as follows: Inhibitory concentration measured by peripheral blood mononuclear cells (BAL) viral assay. Type of series: functional, Homo sapiens.
Series [14] concerns the target T1, C-C chemokine receptor type 5. The description is as §1. It counts as cell membranes. This is another data set of the same source.
Target sequence in this assay (P51681 whole entry, looked up): as the sequence (P51681 whole entry) above
Series [15] is described as follows: Oral bioavailability in dog. Type of series: ADME, organism-based, Canis lupus familiaris. The following applies: in vivo.
Series [16] can be described thus: Half life was evaluated in dog. Type of series: ADME, organism-based, Canis lupus familiaris. Particulars: in vivo.
A short description of series [17]: Plasma clearance was evaluated in dog. Type of series: ADME, organism-based, Canis lupus familiaris. Particulars: read-out: Clp.
Series [18] is described as follows: Inhibitory concentration by Peripheral blood mononuclear cells assay. Type of series: functional. Particulars: Homo sapiens.
Series [19] can be described thus: Volume of distribution was evaluated in dog. Type of series: ADME, organism-based, Canis lupus familiaris. Particulars: in vivo, read-out: Vdss.
The subject of series [20] is HeLa. As to the kind of experiment: Inhibitory concentration obtained in the HeLa cell anti infectivity assay versus BAL strain. Type of series: functional. Particulars: Homo sapiens.
The mark [21] stands for this setting: Human immunodeficiency virus 1, HeLa.

The term IC90 denotes the concentration needed for an effect of 90%. What is called IC50 is the concentration that gives 50% inhibition. `COC(=O)C(CCC1CCN(C[C@H]2CN([C@H](CC3CC3)C(=O)O)C[C@@H]2c2cccc(F)c2)CC1)c1ccc(F)cc1` (stereo partly drawn): it took 33 nM to reach the 90% level in [1] (setting [21]) (IC90). The compound also displayed an IC50 in [2] of 1.5 nM.

What is called half-life is how long it takes for the measured level to halve. The term bioavailability denotes the share of a dose that reaches the circulation, judged against a reference dose that is usually intravenous. The IC95 is the concentration at which the effect reaches the 95% level. For the compound `O=C(O)[C@@H](CC1CCC1)N1CC(CN2CCC(CCC(F)(F)c3ccc(F)cc3)CC2)[C@@H](c2cccc(F)c2)C1` (single isomer, unassigned), the half-life in series [3] is 2.4 h; in series [8], 3.1 h. Further, the values for the bioavailability in series [4] and in [10] were 32% and 12%, respectively. Further, the results for the clearance in [5] and in [7] were 11 mL/min/kg and 18 mL/min/kg, respectively. The Vd in series [6] is 1.8 L/kg; in series [9], 2.2 L/kg. Moreover, in series [1] (setting [21]), the 90% effect level (IC90) was put at 1.6 nM. The compound further gave an IC50 in series [2] of 0.3 nM. In series [11], this compound returned an IC95 of 18 nM.

For `O=C(O)C(CCC1CCN(C[C@H]2CN([C@H](CC3CC3)C(=O)O)C[C@@H]2c2cccc(F)c2)CC1)c1ccc(F)cc1` (stereo partly drawn), the IC50 in [2] was 51 nM.

Consider `O=C(O)[C@@H](CC1CCC1)N1C[C@H](CN2CCC(CC[S+]([O-])c3ccc(F)cc3)CC2)[C@@H](c2cccc(F)c2)C1` (stereo in doubt; 31), for which it took 0.8 nM to reach the 90% level in series [1] (IC90). In series [2], this compound displayed an IC50 of 0.4 nM.

With `N#Cc1ccc(CCCC2CCN(C[C@H]3CN([C@H](CC4CCC4)C(=O)O)C[C@@H]3c3cccc(F)c3)CC2)cc1`, the clearance in series [7] was 47.8 mL/min/kg. The same compound gave an IC90 in series [1] (setting [21]) of 0.4 nM. The compound also gave a half-life in series [8] of 1 h. In series [2], this compound gave an IC50 of 0.3 nM. This compound also gave a bioavailability in series [12] of 7%.

Take `CC(C)[C@H](C(=O)O)N1C[C@H](CN2CCC(CCC(F)(F)c3ccc(F)cc3)CC2)[C@@H](c2cccc(F)c2)C1`: the 90% effect level in [1] (setting [21]) (IC90) was put at 33 nM. In [2], this compound registered an IC50 of 0.5 nM.

Regarding `O=C(O)[C@@H](CC1CC1)N1C[C@H](CN2CCC(CCC(CO)c3ccc(F)cc3)CC2)[C@@H](c2cccc(F)c2)C1` (stereo partly drawn), in series [1] (setting [21]), the 90% effect concentration (IC90) came to 33 nM. Further, in series [2], the IC50 came to 4.8 nM.

The compound `O=C(O)[C@@H](CC1CCC1)N1C[C@H](CN2CCC(CC[S+]([O-])c3ccc(F)cc3)CC2)[C@@H](c2cccc(F)c2)C1` (stereo in doubt; 30) returned an IC90 in series [1] of 33 nM. For the same compound, the IC50 in [2] is 0.5 nM.

Regarding `O=C(O)[C@@H](CC1CCC1)N1C[C@H](CN2CCC(CCCc3ccc(F)cc3)CC2)[C@@H](c2cccc(F)c2)C1`, the clearance in series [7] worked out at 32 mL/min/kg. For the same compound, in series [1] (setting [21]), the 90% effect level (IC90) was put at 2 nM. In [8], the half-life was 3.4 h. The same compound returned an IC50 in series [2] of 0.8 nM. Besides, the bioavailability in [12] was determined as 16%.

In series [2], `COP(=O)(CCC1CCN(C[C@H]2CN([C@H](CC3CC3)C(=O)O)C[C@@H]2c2cccc(F)c2)CC1)c1ccccc1` (stereo partly drawn) gave a half-inhibitory concentration (IC50) of 19 nM.

`O=C(O)[C@@H](CC1CC1)N1C[C@H](CN2CCC(CCC3(c4ccc(F)cc4)OCCO3)CC2)[C@@H](c2cccc(F)c2)C1` came in with an IC90 in [1] (setting [21]) of 100 nM. The IC50 in [2] was 3.7 nM.

For the compound `O=C(CCC1CCN(C[C@H]2CN([C@@H](C(=O)O)C3CCCCC3)C[C@@H]2c2ccccc2)CC1)c1ccc(F)cc1`, in [1] (setting [21]), the IC90 amounted to 100 nM. Also, the IC50 in series [2] was 1.6 nM.

Compound `O=C(O)[C@@H](C1CCCCC1)N1C[C@H](CN2CCC(CCC(F)(F)c3ccc(F)cc3)CC2)[C@@H](c2ccccc2)C1` gave a concentration for an effect of 90% (IC90) in series [1] (setting [21]) of 4 nM. In addition, the half-inhibitory concentration (IC50) in series [2] was 0.3 nM.

For the compound `O=C(O)[C@@H](CC1CCC1)N1C[C@H](CN2CCC(CCS(=O)(=O)c3ccc(F)cc3)CC2)[C@@H](c2cccc(F)c2)C1`, in series [4], the bioavailability worked out at 16%. Also, the IC50 in series [13] is 1.6 nM. The clearance in [7] came to 78 mL/min/kg. In [1] (setting [21]), this compound gave an IC90 of 0.4 nM. Further, the half-life in [8] was 0.8 h. Moreover, the Vd in series [9] turned out to be 1.9 L/kg. For the same compound, the IC95 in [14] stood at 0.2 nM.

Turning to `O=C(O)[C@@H](CC1CCC1)N1C[C@H](CN2CCC(CCCc3ccc(C(F)(F)F)cc3)CC2)[C@@H](c2cccc(F)c2)C1`, the IC90 in [1] (setting [21]) is 11 nM. The compound further registered an IC50 in series [2] of 0.2 nM.

`O=C(O)[C@@H](CC1CC1)N1C[C@H](CN2CCC(CCP(=O)(O)c3ccccc3)CC2)[C@@H](c2cccc(F)c2)C1` gave an IC50 in [2] of 1000 nM.

With `O=C(O)[C@@H](CC1CCC1)N1C[C@H](CN2CCC(CCCc3ccccc3)CC2)[C@@H](c2cccc(F)c2)C1`, in [7], the clearance is 32 mL/min/kg. In addition, the half-life in [8] is 3.4 h. In [2], the IC50 came out at 0.5 nM. The compound further showed a bioavailability in [12] of 24%.

`O=C(O)[C@@H](C1CCCCC1)N1C[C@H](CN2CCC(CCS(=O)(=O)c3ccc(F)cc3)CC2)[C@@H](c2cccc(F)c2)C1`: in series [1] (setting [21]), the IC90 came to 0.4 nM. The same compound had a half-maximal inhibitory concentration (IC50) in [2] of 1.1 nM.

Turning to `O=C(O)[C@@H](CC1CC1)N1CC(CN2CCC(CCC(F)(F)c3ccc(F)cc3)CC2)[C@@H](c2cccc(F)c2)C1` (single isomer, unassigned), the results for the half-life in series [3], in series [16] and in series [8] were 5.6 h, 2.4 h and 7.5 h, respectively. The bioavailability in [4] was 3.9%; in series [15], 37%; in series [10], 8%. Further, the clearance worked out at 17.6 mL/min/kg in [5], 24 mL/min/kg in [17] and 14 mL/min/kg in [7]. The Vd in series [6] was determined as 2.8 L/kg; in series [9], 6.1 L/kg; in series [19] it was 3.7 L/kg. Further, it took 0.4 nM to reach the 90% level in series [1] (setting [21]) (IC90). The IC95 was below 20 nM in series [18] and 12 nM in series [11]. In addition, the IC50 in series [2] is 0.06 nM.

`O=C(O)[C@@H](CC1CCC1)N1CC(CN2CCC(CCC(F)(F)c3ccc(F)cc3)CC2)[C@@H](c2ccccc2)C1` (single isomer, unassigned) showed an IC50 in series [2] of 0.2 nM.

In [4], `CC(O)(CCC1CCN(C[C@H]2CN([C@H](CC3CC3)C(=O)O)C[C@@H]2c2cccc(F)c2)CC1)c1ccc(F)cc1` (stereo partly drawn) registered a bioavailability of 10%. Further, in [7], the clearance turned out to be 5.4 mL/min/kg. Besides, the 90% effect level in [1] (setting [21]) (IC90) was put at 1.2 nM. Also, the half-life in [8] is 1.6 h. The Vd in [9] was found to be 3.9 L/kg. In series [2], this compound displayed an IC50 of 1.6 nM.

Compound `O=C(O)[C@@H](CC1CC1)N1C[C@H](CN2CCC(CCC(O)c3ccc(F)cc3)CC2)[C@@H](c2cccc(F)c2)C1` (stereo partly drawn) gave a bioavailability in series [4] of 2%. Moreover, the clearance in series [7] is 76 mL/min/kg. It took 1.2 nM to reach the 90% level in series [1] (setting [21]) (IC90). The half-life in series [8] was 0.9 h. Moreover, in series [9], the Vd was 3.3 L/kg. This compound came in with an IC50 in [2] of 0.4 nM. For the same compound, it took 15 nM to reach the 95% level in series [11] (IC95).

Turning to `O=C(O)[C@@H](CC1CCC1)N1C[C@H](CN2CCC(CCCc3ccccc3)CC2)[C@@H](c2ccccc2)C1`, the IC50 in [13] is below 8 nM. Besides, the IC90 in series [20] was found to be 1.2 nM.

`CC(C)[C@H](C(=O)O)N1C[C@H](CN2CCC(CCSc3ccc(F)cc3)CC2)[C@@H](c2cccc(F)c2)C1` registered an IC90 in [1] (setting [21]) of 100 nM. Also, the IC50 in [2] was 0.8 nM.

On to `CC(C)[C@H](C(=O)O)N1C[C@H](CN2CCC(CCS(=O)(=O)c3ccc(F)cc3)CC2)[C@@H](c2cccc(F)c2)C1`, for which the 90% effect level in series [1] (setting [21]) (IC90) was put at 4 nM. In series [2], this compound had an IC50 of 0.9 nM.

Take `O=C(O)[C@@H](CC1CCC1)N1C[C@H](CN2CCC(CCSc3ccc(F)cc3)CC2)[C@@H](c2cccc(F)c2)C1`: the 90% effect level in series [1] (setting [21]) (IC90) was put at 4 nM. This compound also gave an IC50 in [2] of 0.1 nM.
